Measured values reported in US7781186B2, “Screening methods using normal human liver cell line” (The United States of America as represented by the …, priority 2000, dated 2010).

How the values were obtained:
mouse liver mitochondria = test: Mitochondrial inner transmembrane potential (ΔΨm), JC-1 probe, isolated liver mitochondria; format: biochemical; details: in vitro
Method: To explore whether LEF (the prodrug) or its active metabolite […]-1726 alter mitochondrial function including the Ca^2+ dependent, cyclosporine A-sensitive mPT, we isolated mouse liver mitochondria and exposed them to LEF or […]-1726, and measured the concentration-dependent effects on the mitochondrial inner transmembrane potential (ΔΨm) using the cationic fluorescent probe, JC-1. Furthermore, the effects on the inductin of the mPT were assessed by monitoring large amplitude swelling at 540 nm.

mitochondria = test: mPT-mediated cytochrome c release from mitochondria; format: biochemical
Source text: (§1) The cell line of the invention can further be used in a method for assessing toxicity of chemicals or drugs using methods known in the art. For example, lactate dehydrogenase (LDH) leakage from cells into the culture medium is an established method to assess cell injury. Enzyme activity in the culture medium following exposure of cells to a chemical for a certain time will be expressed as percentage of the total of intra- and extracellular enzyme activity. Another example is the determination of cytochrome c release from mitochondria into the cytosol, which is a measure of mitochondria-mediated induction of lethal cell injury. Cells can be exposed to various concentrations of a chemical for various time points. The cells can then be harvested, homogenized, and mitochondria and cytosol isolated by differential centrifugation. The subcellular fractions can then be lysed, loaded onto SDS-PAGE gels, and probed with a specific antibody against cytochrome c.
Both LEF and A77-1726 attenuated the ΔΨm (at ≧1 uM).

HC04 cell line = test: Acetaminophen-induced mPT-associated cytotoxicity in cultured immortalized human hepatocytes; format: cell-based
Method: Furthermore, the effects on the inductin of the mPT were assessed by monitoring large amplitude swelling at 540 nm. In addition, the effects of LEF were determined in cultured immortalized human hepatocytes (HC04 cell line).

[1] = test system: mitochondrial permeability transition pore; test: Membrane permeability transition (mPT), large amplitude swelling at 540 nm, isolated liver mitochondria; format: biochemical, mouse
Method: To explore whether LEF (the prodrug) or its active metabolite A77-1726 alter mitochondrial function including the Ca^2+ dependent, cyclosporine A-sensitive mPT, we isolated mouse liver mitochondria and exposed them to LEF or A77-1726, and measured the concentration-dependent effects on the mitochondrial inner transmembrane potential (ΔΨm) using the cationic fluorescent probe, JC-1. Furthermore, the effects on the inductin of the mPT were assessed by monitoring large amplitude swelling at 540 nm. In addition, the effects of LEF were determined in cultured immortalized human hepatocytes (HC04 cell line).

HepG2 cells = format: cell-based, human
Source text: as §1
To determine whether HC04 cells would respond to a standard hepatotoxicant in vitro, the concentration- and time-dependent toxicity of acetaminophen (APAP) was assessed and compared to that in HepG2 cells.

SMILES	uncoupling (summary) (mouse liver mitochondria)	protection from mPT-mediated cytochrome c release from mitochondria (mitochondria)	protection from acetaminophen-induced mPT-associated cytotoxicity (HC04 cell line)	inhibition of the mPT (summary) ([1]; in vitro)	protection from the mPT ([1]; mPT caused by KH2PO4 (2 mM))	protection from the mPT ([1]; mPT caused by nimesulide (30 uM))	LDH release (indicative of cell injury) (HepG2 cells)
Cc1oncc1C(=O)Nc1ccc(C(F)(F)F)cc1 [LEF, Leflunomide]	weak uncouplers	protected	completely protected	potent inhibitors	completely protected	completely protected	
CC(=O)Nc1ccc(O)cc1 [APAP, acetaminophen]							did not respond
